US20140005163A1 (NOVARTIS AG, priority 2010, published 2014)
Values after ≈ are worked out from the molar mass of the structure shown. Where two headings read alike, the source gives them in different places.

Experiments:
Solubility at pH 6.8 = assay type: physicochemical
Outline: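 Solubility was measured at pH 6.8 following the cited Zhou et al. (2007) procedure.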

[1] = test system: PKB Ser473 phosphorylation in Rat1-myr-HA-p110 alpha cells; experiment: Reverse protein array assay, PKB Ser473 phosphorylation in Rat1-myr-p110 alpha cells; assay type: cell-based; conditions: 0.5 h, pAkt Ser473, 30 minutes compound incubation, read-out: p-PKB IC50
Outline: (§1)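 Lysates were arrayed at four dilutions, and phospho-PKB Ser473 was quantified by relative fluorescence signal. They came from Rat1-myr-HA-p110 alpha, beta or delta cells exposed for 30 min at 37 °C to an 8-point compound series with 0.2% DMSO constant.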

[2] = test system: S6 Ribosomal Protein phosphorylation Ser235/236 in TSC1 null mouse embryo fibroblast (MEF) cells; experiment: Reverse protein array assay, S6 Ribosomal Protein phosphorylation Ser235/236 in TSC1 null MEF cells; assay type: cell-based; conditions: 1 h, pS6 ribosomal protein Ser235/236, 60 minutes incubation, read-out: p-S6 IC50
Outline: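 TSC1−/− MEFs, seeded and held ≥20 h at 37 °C/5% CO2, were exposed to 8-step serial compound dilutions (0.02% DMSO final; DMSO vehicle control) for 60 min at 37 °C. Cells were then lysed on ice for 10 min and lysates spotted onto reverse protein array chips.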

mTOR = target: T1, mTOR (Homo sapiens, UniProt P42345); experiment: Biochemical assay for m-TOR by TR-FRET; conditions: 8 μM ATP, 400 nM GFP-4EBP1, 0.5 nM mTOR
T1 construct: purchased Invitrogen Corporation (Carlsbad/CA, USA) PV4753
Outline: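 mTOR (0.5 nM) was incubated at rt with ATP (8 μM final) and GFP-4EBP1 (400 nM final) in 50 mM HEPES pH 7.5, 10 mM MnCl2, 50 mM NaCl, 1 mM EGTA, 1 mM DTT. EDTA stop with Tb3+-anti-p4EBP1 [pThr46] antibody (0.5 nM); TR-FRET read 15 min later.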

[3] = test system: PKB Ser473 phosphorylation in Rat1-myr-HA-p110 beta cells; experiment: Reverse protein array assay, PKB Ser473 phosphorylation in Rat1-myr-p110 beta cells; assay type: cell-based; conditions: 0.5 h, pAkt Ser473, 30 minutes incubation, read-out: p-PKB IC50
Outline: as §1

[4] = test system: PKB Ser473 phosphorylation in Rat1-myr-HA-p110 delta cells; experiment: Reverse protein array assay, PKB Ser473 phosphorylation in Rat1-myr-p110 delta cells; assay type: cell-based; conditions: read-out: p-PKB IC50
Outline: as §1

[5] = pH 6.8, aqueous buffer, thermodynamic from solid, read-out: solubility

T1 sequence (P42345 1360-2549 limits assumed): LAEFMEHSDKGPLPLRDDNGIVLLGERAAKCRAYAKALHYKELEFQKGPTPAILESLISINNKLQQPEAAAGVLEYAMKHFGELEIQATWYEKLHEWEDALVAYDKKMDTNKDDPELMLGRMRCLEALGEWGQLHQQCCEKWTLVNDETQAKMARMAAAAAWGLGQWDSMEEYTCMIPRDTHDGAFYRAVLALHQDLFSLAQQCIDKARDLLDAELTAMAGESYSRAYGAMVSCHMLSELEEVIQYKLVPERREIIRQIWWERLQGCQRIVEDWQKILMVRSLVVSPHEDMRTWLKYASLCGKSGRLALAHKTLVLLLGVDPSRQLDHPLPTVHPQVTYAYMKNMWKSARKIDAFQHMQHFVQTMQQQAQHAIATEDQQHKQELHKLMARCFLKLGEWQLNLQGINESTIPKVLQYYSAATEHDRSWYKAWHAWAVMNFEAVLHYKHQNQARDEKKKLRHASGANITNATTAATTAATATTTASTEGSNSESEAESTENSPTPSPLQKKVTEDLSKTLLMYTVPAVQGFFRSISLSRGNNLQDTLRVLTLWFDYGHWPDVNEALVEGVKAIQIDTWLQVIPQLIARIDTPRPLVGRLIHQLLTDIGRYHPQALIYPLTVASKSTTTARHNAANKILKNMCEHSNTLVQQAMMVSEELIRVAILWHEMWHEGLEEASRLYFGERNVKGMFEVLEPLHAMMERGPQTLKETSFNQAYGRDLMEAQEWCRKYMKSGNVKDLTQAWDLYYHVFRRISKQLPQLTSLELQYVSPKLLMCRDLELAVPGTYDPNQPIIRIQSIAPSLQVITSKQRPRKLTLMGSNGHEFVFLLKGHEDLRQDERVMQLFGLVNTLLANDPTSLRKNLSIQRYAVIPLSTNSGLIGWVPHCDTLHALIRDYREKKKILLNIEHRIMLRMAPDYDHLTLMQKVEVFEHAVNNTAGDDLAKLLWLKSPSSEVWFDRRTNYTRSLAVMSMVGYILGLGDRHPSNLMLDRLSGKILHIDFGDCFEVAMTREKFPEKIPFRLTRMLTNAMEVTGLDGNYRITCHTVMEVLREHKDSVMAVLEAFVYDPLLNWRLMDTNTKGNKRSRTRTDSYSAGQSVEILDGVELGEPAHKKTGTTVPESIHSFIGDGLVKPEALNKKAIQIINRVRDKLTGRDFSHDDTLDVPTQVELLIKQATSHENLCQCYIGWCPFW

solubility (Solubility at pH 6.8; pH 6.8) | IC50 [1] | IC50 (mTOR) | IC50 [3] | IC50 [4] | solubility (Solubility at pH 6.8; [5]) | SMILES | IC50 [2]
2 µg/mL (≈ 4.53 µM) | 18 nM | 21 nM | 22 nM | 66 nM |  | Cc1nn(C)cc1-n1c(=O)n(C)c2cnc3ccc(-c4cnc5c(c4)OCCN5C)cc3c21 [Example 209, 1-(1,3-Dimethyl-1H-pyrazol-4-yl)-3-methyl-8-(4-methyl-3,4-dihydro-2H-pyrido[3,2-b][1,4]oxazin-7-yl)-1,3-dihydro-imidazo[4,5-c]quinolin-2-one] | 2 nM
 | 43 nM | 9 nM | 113 nM | 178 nM | > 428 µg/mL | Cc1nn(C)cc1-n1c(=O)n(C)c2cnc3ccc(-c4cncc(C(C)(C)O)c4)cc3c21 [Example 215.2, 1-(1,3-Dimethyl-1H-pyrazol-4-yl)-8-[5-(1-hydroxy-1-methyl-ethyl)-pyridin-3-yl]-3-methyl-1,3-dihydro-imidazo[4,5-c]quinolin-2-one] | 3 nM
 | 12 nM | 48 nM | 29 nM | 59 nM | 3 µg/mL (≈ 6.91 µM) | CNc1ncc(-c2ccc3ncc4c(c3c2)n(-c2cc(C)nn2C)c(=O)n4C)cc1Cl [Example 146.5, 8-(5-Chloro-6-methylamino-pyridin-3-yl)-1-(2,5-dimethyl-2H-pyrazol-3-yl)-3-methyl-1,3-dihydro-imidazo[4,5-c]quinolin-2-one] | 2.66 nM
 | 7 nM | 30 nM | 22 nM | 29 nM | 16 µg/mL (≈ 38.4 µM) | COc1ccc(-c2ccc3ncc4[nH]c(=O)n(-c5cn(C)nc5C)c4c3n2)cc1OC [Example 249, 8-(3,4-dimethoxy-phenyl)-1-(1,3-dimethyl-1H-pyrazol-4-yl)-1,3-dihydro-1,3,5,9-tetraaza-cyclopenta[a]naphthalen-2-one] | 2 nM
